Measurements: patent US6514946B1, “Macrolide antibiotics and treatment and prophylaxis of pasteurellosis using the same” (Zaidan Hojin Biseibutsu Kagaku Kenkyu Kai, priority 1999, dated 2003)
Converted amounts (≈) assume the structure as drawn.

Tests used:
S. aureus FDA209P = assay: Minimum inhibition concentration (MIC), agar double dilution method; format: cell-based, Staphylococcus aureus; conditions: Mueller hinton agar
Protocol: (§1) Test 1; Minimum Inhibition Concentration (MIC)
(§2) MIC was measured, based on the standard method of Japan Society of Chemotherapy, on a BHI agar medium (Brain heart-infusion agar, made by Difco Laboratories Inc.(USA)) with respect to Pasteurella and on a Mueller hinton agar medium (Mueller hinton agar, made by Difco, Laboratories Inc.(USA)) with respect to the other test bacteria in both cases according to the double dilution method.

[1] = test system: S. aureus Smith (virulent strain); assay: microbe, parasite or virus in culture; format: cell-based, Staphylococcus aureus; conditions: S. aureus Smith (virulent strain); Mueller hinton agar
Protocol: as §1, §2

[2] = test system: Past haemolytica BAPO103 S801; assay: Minimum inhibition concentration (MIC), agar double dilution method; format: cell-based, Pasteurella haemolytica; conditions: Past haemolytica BAPO103 S801, strain from poultry; BHI agar
Protocol: as §1, §2

[3] = test system: Past haemolytica BBPO102 N811; assay: as above; format: cell-based, Pasteurella haemolytica; conditions: Past haemolytica BBPO102 N811, strain from cattle; BHI agar
Protocol: as §1, §2

ICR mice = assay: Toxicity test, intravenous or subcutaneous injection; format: in vivo
E. coli K-12 R-5 = assay: Minimum inhibition concentration (MIC), agar double dilution method; format: cell-based, Escherichia coli; conditions: Mueller hinton agar
Protocol: as §1, §2

[4] = test system: Past. multocida BSPO302 No. 6; assay: as above; format: cell-based, Pasteurella multocida; conditions: Past. multocida BSPO302 No. 6, strain from a pig; BHI agar
Protocol: as §1, §2

[5] = test system: Past. multocida BOPO305 M-17; assay: as above; format: cell-based, Pasteurella multocida; conditions: Past. multocida BOPO305 M-17, strain from a sheep; BHI agar
Protocol: as §1, §2

[6] = test system: Bacillus subtilis NRRL B-558; assay: as above; format: cell-based; conditions: Bacillus subtilis NRRL B-558; Mueller hinton agar
Protocol: as §1, §2

Proteus vulgaris OX19 = assay: as above; format: cell-based; conditions: Mueller hinton agar
Protocol: as §1, §2

[7] = test system: Micrococcus luteus PCI1001; assay: as above; format: cell-based; conditions: Mueller hinton agar
Protocol: as §1, §2

[8] = test system: Staphylococcus aureus 193; assay: as above; format: cell-based; conditions: Mueller hinton agar
Protocol: as §1, §2

[9] = test system: Shigella dysenteriae JS11910; assay: as above; format: cell-based; conditions: Shigella dysenteriae JS11910; Mueller hinton agar
Protocol: as §1, §2

Serratia marcescens = assay: as above; format: cell-based; conditions: Mueller hinton agar
Protocol: as §1, §2

Escherichia coli NIHJ = assay: as above; format: cell-based; conditions: Mueller hinton agar
Protocol: as §1, §2

[10] = test system: Klebsiella pneumoniae PCI602; assay: as above; format: cell-based; conditions: Mueller hinton agar
Protocol: as §1, §2

[11] = test system: Enterobacter aerogenes ATCC13048; assay: as above; format: cell-based; conditions: Mueller hinton agar
Protocol: as §1, §2

[12] = test system: Pasteurella haemolytica BBPO101 N791; assay: as above; format: cell-based; conditions: Pasteurella haemolytica BBPO101 N791, strain from cattle; BHI agar
Protocol: as §1, §2

[13] = test system: Salmonella enteritidis 1891; assay: as above; format: cell-based; conditions: Mueller hinton agar
Protocol: as §1, §2

[14] = intravenous injection, 0.25 mg/mouse
[15] = intravenous injection, 0.5 mg/mouse
[16] = intravenous injection, 1.0 mg/mouse
[17] = subcutaneous injection, 1.0 mg/mouse
[18] = subcutaneous injection, 2.0 mg/mouse
[19] = subcutaneous injection, 3.0 mg/mouse
[20] = subcutaneous injection, 4.0 mg/mouse

CC[C@H]1OC(=O)C[C@@H](O)[C@H](C)[C@@H](O[C@@H]2O[C@H](C)C(O)C(N(C)C)C2O)[C@@H](CCN2CCCCCCC2)C[C@@H](C)C(=O)/C=C/C(C)=C/[C@@H]1CN1CCCCCCC1 (some centres unmarked) [Compound C-8]
MIC (S. aureus FDA209P): 0.78 µg/mL (≈ 0.987 µM)
MIC [1]: 1.56 µg/mL (≈ 1.97 µM)
MIC [2]: 1.56 µg/mL (≈ 1.97 µM)
MIC [3]: 0.39 µg/mL (≈ 0.494 µM)
Dissection finding (ICR mice; [14]): no abnormal finding
Surviving number (ICR mice; [14]): 3/3
Dissection finding (ICR mice; [15]): no abnormal finding
Surviving number (ICR mice; [15]): 3/3
Dissection finding (ICR mice; [16]): no abnormal finding
Surviving number (ICR mice; [16]): 3/3
Surviving number (ICR mice; intravenous injection, 1.5 mg/mouse): 0/1 (immediate death)
Surviving number (ICR mice; intravenous injection, 2.0 mg/mouse): 0/3 (immediate death)
Surviving number (ICR mice; intravenous injection, 4.0 mg/mouse): 0/1 (immediate death)
Dissection finding (ICR mice; [17]): Sores and alopecia at the administration part
Surviving number / number of used animals (ICR mice; [17]): 2/2
Dissection finding (ICR mice; [18]): Sores and alopecia at the administration part
Surviving number / number of used animals (ICR mice; [18]): 2/2
Dissection finding (ICR mice; [19]): Sores and alopecia at the administration part
Surviving number / number of used animals (ICR mice; [19]): 2/2
Dissection finding (ICR mice; [20]): Sores and alopecia at the administration part
Surviving number / number of used animals (ICR mice; [20]): 2/2
MIC (E. coli K-12 R-5): 1.56 µg/mL (≈ 1.97 µM)
MIC [4]: 0.39 µg/mL (≈ 0.494 µM)
MIC [5]: 0.78 µg/mL (≈ 0.987 µM)
MIC [6]: 3.13 µg/mL (≈ 3.96 µM)
MIC (Proteus vulgaris OX19): 6.25 µg/mL (≈ 7.91 µM)
MIC [7]: 0.20 µg/mL (≈ 0.253 µM)
MIC [8]: 0.78 µg/mL (≈ 0.987 µM)
MIC [9]: 0.78 µg/mL (≈ 0.987 µM)
MIC (Serratia marcescens): 12.5 µg/mL (≈ 15.8 µM)
MIC (Escherichia coli NIHJ): 1.56 µg/mL (≈ 1.97 µM)
MIC [10]: 3.13 µg/mL (≈ 3.96 µM)
MIC [11]: 6.25 µg/mL (≈ 7.91 µM)
MIC [12]: 0.20 µg/mL (≈ 0.253 µM)
MIC [13]: 0.78 µg/mL (≈ 0.987 µM)
